The values that follow come from PMC3156476 (ACS medicinal chemistry letters, 2011).

As usually defined, the Ki is the equilibrium dissociation constant of an inhibitor or competing ligand from its target.

Experiment [1] addresses T1, hA1AR (Homo sapiens, UniProt P30542).
T1 sequence (P30542 1-326): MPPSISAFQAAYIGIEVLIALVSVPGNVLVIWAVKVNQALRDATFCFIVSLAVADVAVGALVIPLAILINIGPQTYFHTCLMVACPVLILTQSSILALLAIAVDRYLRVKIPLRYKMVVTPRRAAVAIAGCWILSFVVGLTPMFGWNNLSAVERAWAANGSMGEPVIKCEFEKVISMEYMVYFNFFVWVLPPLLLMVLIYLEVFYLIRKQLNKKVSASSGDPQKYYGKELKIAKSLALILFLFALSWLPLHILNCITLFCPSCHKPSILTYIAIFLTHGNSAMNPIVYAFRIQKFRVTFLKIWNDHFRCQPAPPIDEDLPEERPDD
The format is cell-based. Particulars: compared to standard full agonist CPA / NECA.

Experiment [2] has as its target T1, hA1AR. The following applies: read-out: Affinity Ki, A1; CHO cells expressing hA1AR; ref [6], [7], and [12]; cited from earlier work.
A further experiment concerns the target T2, hA3AR (Homo sapiens, UniProt P0DMS8).
T2 sequence (P0DMS8 1-318): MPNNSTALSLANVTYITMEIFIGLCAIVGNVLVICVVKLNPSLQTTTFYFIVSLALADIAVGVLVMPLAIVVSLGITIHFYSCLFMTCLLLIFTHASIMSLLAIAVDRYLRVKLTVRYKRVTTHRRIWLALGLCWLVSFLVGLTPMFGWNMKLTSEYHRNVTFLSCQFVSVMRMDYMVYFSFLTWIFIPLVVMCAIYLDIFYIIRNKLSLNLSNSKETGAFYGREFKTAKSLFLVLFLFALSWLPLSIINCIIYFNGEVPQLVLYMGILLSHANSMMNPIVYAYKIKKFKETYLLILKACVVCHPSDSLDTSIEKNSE
Particulars: read-out: Affinity Ki, A3; CHO cells expressing hA3AR; ref [6], [7], and [12]; cited from earlier work.

Take `CCNC(=O)[C@H]1O[C@@H](n2cnc3c(N)ncnc32)[C@H](O)[C@@H]1O` [NECA, 5′-N-ethylcarboxamidoadenosine]: the “Agonist character at A1AR in cyclic AMP assay” value at hA1AR [1] was “full agonist”.
On the same count and under the same terms, the entry for `O[C@@H]1[C@H](O)[C@@H]2C[C@@H]2[C@H]1n1cnc2c(NC(C3CC3)C3CC3)nc(Cl)nc21` [Compound 21] is “full agonism”.
In the case of `CNC(=O)[C@@]12C[C@@H]1[C@@H](n1cnc3c(NCc4cccc(Cl)c4)nc(Cl)nc31)[C@H](O)[C@@H]2O` [Compound 1, (1′S,2′R,3′S,4′R,5′S)-4′-{2-chloro-6-[(3-chlorophenylmethyl)amino]purin-9-yl}-1-(methylaminocarbonyl)bicyclo[3.1.0]hexane-2,3-diol], on hA1AR [2], the Ki was 260 ± 60 nM.
Turning to `CNC(=O)[C@@]12C[C@@H]1[C@@H](n1cnc3c(NC4CCCC4)nc(Cl)nc31)[C@H](O)[C@@H]2O` [Compound 2, (1′S,2′R,3′S,4′R,5′S)-4-(2-chloro-6-(cyclopentylamino)-9H-purin-9-yl)-2,3-dihydroxy-N-methylbicyclo[3.1.0]hexane-1-carboxamide], the Ki at hA1AR [2] was 18.3 ± 6.3 nM; on hA3AR, 13.1 ± 5.1 nM.
Take `O[C@@H]1[C@H](O)[C@H]2C[C@@H]2[C@H]1n1cnc2c(NCc3cccc(I)c3)nc(Cl)nc21` [Compound 5, (1′S,2′R,3′S,4′R,5′S)-4′-[2-chloro-6-(3-iodobenzylamino)-purine]-2′,3′-O-dihydroxybicyclo-[3.1.0]hexane]: at hA3AR, the Ki is 1.44 ± 0.6 nM.
